Assay results: patent publication US6747021B2, “Cryptophycin compound” (Eli Lilly and Company, priority 2000, dated 2004)

Assays:
[1] = tested on: HUMAN COLON ADENOCARCINOMA 15; format: in vivo; conditions: IV 9.5 mg/kg/inj QD 3-11; total dose 85.5 mg/kg; Balb/C SCID female mice
Excerpt: (§1) Inhibition of tumors transplanted into mice is an accepted procedure for studying the efficacy of antitumor agents (Corbett, et al., In vivo Methods for Screening and Preclinical Testing; Use of rodent solid tumors for drug discovery., In: Anticancer Drug Development Guide: Preclinical Screening, Clinical Trials, and Approval, B. Teicher (ed), Humana Press Inc., Totowa, N.J., Chapter 5, pages 75-99 (1997); (Corbett, et al., Int. J. Pharmacog., 33, Supplement, 102-122 (1995)). Murine tumors or human xenographs were implanted essentially as described by Corbett in In vivo Methods for Screening and Preclinical Testing; Use of rodent solid tumors for drug discovery. Briefly, the murine tumor or human xenograph was implanted subcutaneously using either 12-gauge trocar implants or counted number of cells. The location for the trocar insertion is midway between the axillary and inguinal region along the side of the mouse. The trocar is slipped approximately ¾ of an inch subcutaneously up toward the axilla before discharging the tumor fragment, and pinching the skin as the trocar is removed. Alternatively, human tumor cells prepared from a […] of donor tumors (5×10^6 cells) were implanted subcutaneously in a hind-leg of a male or female nude mouse (Charles River). Either a test compound in vehicle or vehicle alone was administered by intravenous bolus injection (iv), intraperitoneal injection (ip), or oral gavage (po). Each treatment group, as well as a group of untreated control animals, consisted of five animals per group in each experiment. Subcutaneous tumor response was monitored by tumor volume measurement performed twice each week over the course of the experiment (60-120 days). Body weights were taken as a general measure of toxicity. The subcutaneous tumor data were analyzed by determining the median tumor weight for each treatment group over the course of the experiment and calculating the tumor growth delay as the difference in days for the treatment versus the control tumors to reach a volume of either 500 or 1000 mm^3.
(§2) Cryptophycin-309 (309) was tested against a variety of murine and human tumors substantially as described supra. Cryptophycin-55 glycinate (55-GLY), Taxol, and Adriamycin (Adria) were also included in certain tests for purposes of comparison. Cryptophycin 55 glycinate is known in the art (WO 98/08505, Example 9) and has the following structure: [drawing 9]
(§3) Tumor Weight(mg)=(a×b^2)/2 where a=tumor length (mm) and b=tumor width (mm).
(§4) Tumor Growth Delay=T−C where T is the median time (days) required for the treatment group tumors to reach a predetermined size, and C is the median time (days) for the control group tumors to reach the same size. Tumor-free survivors are excluded from this calculation, and are tabulated separately (Tumor Free).
(§5) Log Kill=Tumor Growth Delay/(3.32)(Td)
(§6) where Tumor Growth Delay is as previously defined and Td is tumor volume doubling time (days), estimated from the best fit straight line from a log-linear growth plot of the control group of tumors in exponential growth (100-800 mg range)
(§7) %T/C mass—The treatment and control groups are measured when the control group tumors reach approximately 700 to 1200 mg in size (median group). The median tumor weight of each group is determined (including zeros). The T/C value in percent is an indication of antitumor effectiveness. A T/C≦42% is considered significant antitumor activity. A T/C<10% is considered to indicate highly significant antitumor activity.
(§8) Body Weight Loss Nadir—A body weight loss nadir (mean of group) of greater than 20% or drug deaths greater than 20% are considered to indicate an excessively toxic dosage in single course trials.
(§9) Activity Rating—the Activity Rating is derived from the Log Kill according to the following table: […]

[2] = tested on: MAMMARY ADENOCARCINOMA-16/C/Adr; assay: Early stage murine mammary adenocarcinoma-16/C/Adr subcutaneous tumor assay; format: in vivo; conditions: IV 10 mg/kg/inj QD 1-7; total dose 70 mg/kg; C3H female mice
Excerpt: as §1, §2, §3, §4, §5, §6, §7, §8, §9

[3] = tested on: COLON ADENOCARCINOMA 51/A; assay: Early stage murine colon adenocarcinoma 51/A subcutaneous tumor assay; format: in vivo; conditions: IV 10 mg/kg/inj QD 1-8; total dose 80 mg/kg; CDF female mice
Excerpt: as §1, §2, §3, §4, §5, §6, §7, §8, §9

[4] = tested on: MAMMARY ADENOCARCINOMA 16/C; format: in vivo, murine; conditions: IV 8 mg/kg/inj QD 3-11; total dose 72 mg/kg; C3H/HeN female mice
Excerpt: as §1, §2, §3, §4, §5, §6, §7, §8, §9

[5] = tested on: PANCREATIC DUCTAL ADENOCARCINOMA #02; format: in vivo, murine; conditions: IV 8 mg/kg/inj QD 1-8; total dose 64 mg/kg; BDF1 female mice; experiment #
Excerpt: as §1, §2, §3, §4, §5, §6, §7, §8, §9

[6] = tested on: COLON ADENOCARCINOMA-26/A; format: in vivo, murine; conditions: IV 10 mg/kg/inj QD 1-7, 9; total dose 80 mg/kg; Balb/C female mice
Excerpt: as §1, §2, §3, §4, §5, §6, §7, §8, §9

HUMAN COLON ADEN[…]-116 = assay: Early stage human colon adenocarcinoma HCT-116 xenograft assay; format: in vivo; conditions: IV 9 mg/kg/inj QD 3-10; total dose 72 mg/kg; Balb/C SCID female mice
Excerpt: as §1, §2, §3, §4, §5, §6, §7, §8, §9

CC(=O)O[C@H]1C(=O)[C@@]2(C)[C@H]([C@H](OC(=O)c3ccccc3)[C@]3(O)C[C@H](OC(=O)[C@H](O)[C@@H](NC(=O)c4ccccc4)c4ccccc4)C(C)=C1C3(C)C)[C@]1(OC(C)=O)CO[C@@H]1C[C@@H]2O [Taxol]
% T/C MASS [1]: 67% | DRUG DEATHS [1]: 0/5 | GROWTH DELAY [1]: 3.5 days | LOG KILL [1]: 0.4 | MEDIAN TUMOR WEIGHT [1]: 1044 mg | DRUG DEATHS [2]: 0/5 | LOG KILL [2]: None | MEDIAN TUMOR WEIGHT [2]: 1198 mg | % T/C MASS [3]: 25% | ACTIVITY RATING [3]: + (0.7-1.2) | DRUG DEATHS [3]: 0/6 | GROWTH DELAY [3]: 5.6 days | LOG KILL [3]: 0.7 | MEDIAN TUMOR WEIGHT [3]: 288 mg | % T/C MASS [4]: 0% | ACTIVITY RATING [4]: ++++ (>2.8) | DRUG DEATHS [4]: 0/5 | GROWTH DELAY [4]: 12.5 days | LOG KILL [4]: 2.9 | MEDIAN TUMOR WEIGHT [4]: 0 mg | % T/C MASS [5]: 79% | DRUG DEATHS [5]: 0/5 | GROWTH DELAY [5]: 1 days | LOG KILL [5]: 0.1 | MEDIAN TUMOR WEIGHT [5]: 1296 mg | % T/C MASS [6]: 57% | DRUG DEATHS [6]: 0/5 | LOG KILL [6]: None | MEDIAN TUMOR WEIGHT [6]: 516 mg | % T/C MASS (HUMAN COLON ADEN[…]-116): 11% | ACTIVITY RATING (HUMAN COLON ADEN[…]-116): +++ (2.0-2.8) | DRUG DEATHS (HUMAN COLON ADEN[…]-116): 0/5 | GROWTH DELAY (HUMAN COLON ADEN[…]-116): 17 days | LOG KILL (HUMAN COLON ADEN[…]-116): 2.0 | MEDIAN TUMOR WEIGHT (HUMAN COLON ADEN[…]-116): 126 mg
